From US20070227557A1, “THICKENED SURFACTANT-FREE CLEANSING AND MULTIFUNCTIONAL LIQUID COATING COMPOSITIONS CONTAINING NONREACTIVE ABRASIVE SOLID PARTICLES AND AN ORGANOSILANE QUATERNARY COMPOUND AND METHODS OF USING” (priority 2005, published 2007) come the findings set out here.

A short description of this series: Thickening / thixotropy of aqueous mixtures. Format: physicochemical. The conditions noted are these: standard test formulation. As for the experimental part: “thixotropic” or “thixotropically” means, with reference to a thickened composition, when applied to a vertical surface, it will cling until disturbed by wiping or massaging in biomechanical cleansing.
The sodium dodecylbenzene sulfonate base employed in Examples 34-46 was prepared as follows: 90.07% (Wt.) of deionized water was placed in the blender beaker and 1.104% sodium hydroxide pellets added and the mixture stirred until all sodium hydroxide dissolved. 8.826% of dodecylbenzene sulfonic acid (98% purity) was added slowly with good stirring until all the dodecylbenzene sulfonic acid dissolved (reacted with the sodium hydroxide). The pH of the resulting solution was […]. The final solution contained 9.42% sodium dodecylbenzene sulfonate. Approximately 450 gms of the base, containing 408 gms of water and 42.4 gms of the sodium dodecylbenzene sulfonate, were used in all the examples of TABLE VI. 124 gms of aluminum oxide grit (A2-325 and P-6 grades from Altmatis) were employed in the compositions of TABLE VI.
The alkyl alcohol ethoxylates were added slowly with good mixing employing a Silverson L4RT-A laboratory mixer with the pump head mixer. As the mixture thickened, addition of the alkyl alcohol ethoxylates was slowed until the thickened mixture had the consistency of whipped cream. If the desired thickening was achieved, it was so noted as “YES”, if not, it was noted as “NO”.
In the case of `CCCCCCCCCCCCc1ccc(S(=O)(=O)[O-])cc1.[Na+]` [sodium docecylbenzene sulfonate], the “formation of stable thickened compositions” value is “did form stable thickened compositions”. As to `CCCCCCCCS(=O)(=O)[O-].[Na+]` [sodium octane sulfonate], the “formation of stable thickened compositions” value is recorded as “did not result in stable thickened compositions”. The value for `CCCCCCCCCCCCS(=O)(=O)[O-].[Na+]` [sodium lauryl (C12) sulfonate] was “did not result in stable thickened compositions”; that for sodium alkyl(C11-16) sulfonate was “did not result in stable thickened compositions”.
